Assay results: ChEMBL document CHEMBL1743201, “Casarett and Doull's Toxicology The Basic Science of Poisons, 7th edition” (2008)
Each block holds one molecule with its values, some of them ahead of it.

Legend:
Type in all cases: ADME
Sulfotransferase 2A1 = target: T1, Sulfotransferase 2A1 (Homo sapiens, UniProt Q06520); assay: Major substrate of human cytosolic sulfotransferase SULT2A1
T1 sequence (Q06520 whole entry): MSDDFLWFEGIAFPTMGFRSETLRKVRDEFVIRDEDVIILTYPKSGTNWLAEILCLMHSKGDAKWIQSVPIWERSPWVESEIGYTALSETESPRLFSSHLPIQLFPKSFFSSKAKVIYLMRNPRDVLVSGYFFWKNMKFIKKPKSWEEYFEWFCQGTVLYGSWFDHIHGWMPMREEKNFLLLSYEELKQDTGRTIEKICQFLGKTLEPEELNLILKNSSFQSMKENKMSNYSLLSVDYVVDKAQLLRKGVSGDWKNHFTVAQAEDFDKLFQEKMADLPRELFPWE

Sulfotransferase 1A3 = Sulfotransferase 1A3 (Homo sapiens, UniProt P0DMM9); assay: Major substrate of human cytosolic sulfotransferase SULT1A3
Sulfotransferase 1A3, sequence (P0DMM9 whole entry): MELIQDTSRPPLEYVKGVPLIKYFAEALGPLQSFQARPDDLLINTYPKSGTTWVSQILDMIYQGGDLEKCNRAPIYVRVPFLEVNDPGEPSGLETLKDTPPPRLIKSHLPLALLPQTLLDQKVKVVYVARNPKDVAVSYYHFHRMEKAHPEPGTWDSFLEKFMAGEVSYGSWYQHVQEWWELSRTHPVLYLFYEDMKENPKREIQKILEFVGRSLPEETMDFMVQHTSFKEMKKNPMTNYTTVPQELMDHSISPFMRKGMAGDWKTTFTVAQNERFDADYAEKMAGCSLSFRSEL

Sulfotransferase 1C4 = Sulfotransferase 1C4 (Homo sapiens, UniProt O75897); assay: Major substrate of human cytosolic sulfotransferase SULT1C4
Sulfotransferase 1C4, sequence (O75897 whole entry): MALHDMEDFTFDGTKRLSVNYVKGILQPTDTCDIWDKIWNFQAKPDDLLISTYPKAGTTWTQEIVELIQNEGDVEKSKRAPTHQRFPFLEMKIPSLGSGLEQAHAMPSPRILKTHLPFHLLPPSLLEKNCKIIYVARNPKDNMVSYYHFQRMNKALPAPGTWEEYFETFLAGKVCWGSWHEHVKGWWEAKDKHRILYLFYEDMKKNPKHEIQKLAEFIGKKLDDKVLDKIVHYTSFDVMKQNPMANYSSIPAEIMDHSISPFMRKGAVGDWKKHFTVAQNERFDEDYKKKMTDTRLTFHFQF

[1] = target: T2, UDP-glucuronosyltransferase 1A10 (Homo sapiens, UniProt Q9HAW8); assay: Substrate of human UDP-glucuronosyltransferase UGT1A10
T2 sequence (Q9HAW8 whole entry): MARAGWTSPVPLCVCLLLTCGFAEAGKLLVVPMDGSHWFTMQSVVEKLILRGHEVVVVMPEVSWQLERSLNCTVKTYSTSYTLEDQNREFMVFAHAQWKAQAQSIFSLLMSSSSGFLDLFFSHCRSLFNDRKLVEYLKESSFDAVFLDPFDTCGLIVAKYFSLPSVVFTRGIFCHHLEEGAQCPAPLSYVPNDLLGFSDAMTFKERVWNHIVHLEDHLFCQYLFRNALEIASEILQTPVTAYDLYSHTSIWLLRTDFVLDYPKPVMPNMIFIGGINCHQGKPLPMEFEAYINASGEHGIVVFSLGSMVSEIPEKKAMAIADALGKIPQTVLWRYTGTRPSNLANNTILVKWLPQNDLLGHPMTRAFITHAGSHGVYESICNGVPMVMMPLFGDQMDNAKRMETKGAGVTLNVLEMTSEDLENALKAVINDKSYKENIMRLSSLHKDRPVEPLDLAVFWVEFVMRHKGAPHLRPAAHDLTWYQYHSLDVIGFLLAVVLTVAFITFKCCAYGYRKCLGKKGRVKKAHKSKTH

Sulfotransferase 1E1 = target: T3, Sulfotransferase 1E1 (Homo sapiens, UniProt P49888); assay: Major substrate of human cytosolic sulfotransferase SULT1E1
T3 sequence (P49888 whole entry): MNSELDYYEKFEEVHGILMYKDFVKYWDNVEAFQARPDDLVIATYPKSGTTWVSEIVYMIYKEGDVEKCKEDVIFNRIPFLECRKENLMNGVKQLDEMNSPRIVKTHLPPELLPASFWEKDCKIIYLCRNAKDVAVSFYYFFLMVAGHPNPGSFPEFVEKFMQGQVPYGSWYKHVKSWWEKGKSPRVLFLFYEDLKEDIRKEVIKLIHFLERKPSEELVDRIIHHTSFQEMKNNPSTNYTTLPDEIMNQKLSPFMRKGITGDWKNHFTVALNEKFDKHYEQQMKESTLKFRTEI

[2] = target: T4, UDP-glucuronosyltransferase 1A6 (Homo sapiens, UniProt P19224); assay: Substrate of human UDP-glucuronosyltransferase UGT1A6
T4 sequence (P19224 whole entry): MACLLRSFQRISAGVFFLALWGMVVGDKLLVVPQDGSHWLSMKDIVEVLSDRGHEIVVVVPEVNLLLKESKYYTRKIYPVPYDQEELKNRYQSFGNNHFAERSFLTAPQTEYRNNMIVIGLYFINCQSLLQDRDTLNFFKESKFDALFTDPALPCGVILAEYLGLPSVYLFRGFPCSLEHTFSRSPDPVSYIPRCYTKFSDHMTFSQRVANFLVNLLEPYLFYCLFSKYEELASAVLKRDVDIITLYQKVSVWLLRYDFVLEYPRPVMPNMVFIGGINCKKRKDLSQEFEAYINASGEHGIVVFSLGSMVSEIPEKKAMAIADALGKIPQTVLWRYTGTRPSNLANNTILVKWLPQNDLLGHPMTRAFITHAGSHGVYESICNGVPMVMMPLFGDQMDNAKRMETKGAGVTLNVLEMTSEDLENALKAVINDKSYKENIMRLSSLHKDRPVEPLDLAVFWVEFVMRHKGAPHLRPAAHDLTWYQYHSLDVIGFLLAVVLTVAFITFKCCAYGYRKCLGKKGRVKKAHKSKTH

Sulfotransferase 1B1 = Sulfotransferase 1B1 (Homo sapiens, UniProt O43704); assay: Major substrate of human cytosolic sulfotransferase SULT1B1
Sulfotransferase 1B1, sequence (O43704 whole entry): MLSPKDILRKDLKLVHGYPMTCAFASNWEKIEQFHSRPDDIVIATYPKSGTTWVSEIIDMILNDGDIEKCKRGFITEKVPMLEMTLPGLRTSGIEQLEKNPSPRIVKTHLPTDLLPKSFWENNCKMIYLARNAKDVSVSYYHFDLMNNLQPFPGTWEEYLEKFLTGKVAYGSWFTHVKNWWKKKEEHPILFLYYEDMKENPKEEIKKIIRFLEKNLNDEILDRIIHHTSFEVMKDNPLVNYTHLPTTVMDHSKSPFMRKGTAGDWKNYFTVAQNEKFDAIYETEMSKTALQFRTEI

Sulfotransferase 1A1 = Sulfotransferase 1A1 (Homo sapiens, UniProt P50225); assay: Major substrate of human cytosolic sulfotransferase SULT1A1
Sulfotransferase 1A1, sequence (P50225 whole entry): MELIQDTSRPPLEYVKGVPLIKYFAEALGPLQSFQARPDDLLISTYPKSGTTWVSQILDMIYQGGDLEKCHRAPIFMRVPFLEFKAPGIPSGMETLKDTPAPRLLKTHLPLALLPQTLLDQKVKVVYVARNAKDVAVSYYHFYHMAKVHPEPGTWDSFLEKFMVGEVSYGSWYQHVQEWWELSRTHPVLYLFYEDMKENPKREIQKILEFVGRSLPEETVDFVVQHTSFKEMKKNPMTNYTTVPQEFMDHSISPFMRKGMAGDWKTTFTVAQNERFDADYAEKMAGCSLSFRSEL

Sulfotransferase 4A1 = target: T5, Sulfotransferase 4A1 (Homo sapiens, UniProt Q9BR01); assay: Major substrate of human cytosolic sulfotransferase SULT4A1_v1
T5 sequence (Q9BR01 whole entry): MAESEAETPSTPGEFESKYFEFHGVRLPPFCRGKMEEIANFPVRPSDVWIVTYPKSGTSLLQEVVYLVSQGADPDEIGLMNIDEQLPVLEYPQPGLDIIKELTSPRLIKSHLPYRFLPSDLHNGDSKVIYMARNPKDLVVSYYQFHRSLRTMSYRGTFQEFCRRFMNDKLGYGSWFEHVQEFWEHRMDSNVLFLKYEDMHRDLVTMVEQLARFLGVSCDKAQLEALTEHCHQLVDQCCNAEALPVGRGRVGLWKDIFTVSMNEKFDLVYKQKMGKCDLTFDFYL

[3] = target: T6, UDP-glucuronosyltransferase 1A9 (Homo sapiens, UniProt O60656); assay: Substrate of human UDP-glucuronosyltransferase UGT1A9
T6 sequence (O60656 whole entry): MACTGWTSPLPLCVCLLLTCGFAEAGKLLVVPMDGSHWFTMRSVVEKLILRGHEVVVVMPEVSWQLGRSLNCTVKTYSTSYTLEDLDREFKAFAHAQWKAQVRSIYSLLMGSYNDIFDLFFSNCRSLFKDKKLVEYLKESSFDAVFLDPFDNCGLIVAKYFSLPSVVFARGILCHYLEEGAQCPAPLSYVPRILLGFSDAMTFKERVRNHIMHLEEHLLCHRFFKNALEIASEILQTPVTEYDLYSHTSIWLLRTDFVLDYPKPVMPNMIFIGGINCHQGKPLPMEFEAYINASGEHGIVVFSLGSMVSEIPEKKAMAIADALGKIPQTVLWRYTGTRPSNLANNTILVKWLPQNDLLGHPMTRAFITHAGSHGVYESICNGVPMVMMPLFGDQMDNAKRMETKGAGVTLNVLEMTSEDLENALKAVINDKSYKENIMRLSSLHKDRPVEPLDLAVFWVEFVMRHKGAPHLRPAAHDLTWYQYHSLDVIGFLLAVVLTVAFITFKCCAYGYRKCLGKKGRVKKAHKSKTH

[4] = target: T7, UDP-glucuronosyltransferase 1A8 (Homo sapiens, UniProt Q9HAW9); assay: Substrate of human UDP-glucuronosyltransferase UGT1A8
T7 sequence (Q9HAW9 whole entry): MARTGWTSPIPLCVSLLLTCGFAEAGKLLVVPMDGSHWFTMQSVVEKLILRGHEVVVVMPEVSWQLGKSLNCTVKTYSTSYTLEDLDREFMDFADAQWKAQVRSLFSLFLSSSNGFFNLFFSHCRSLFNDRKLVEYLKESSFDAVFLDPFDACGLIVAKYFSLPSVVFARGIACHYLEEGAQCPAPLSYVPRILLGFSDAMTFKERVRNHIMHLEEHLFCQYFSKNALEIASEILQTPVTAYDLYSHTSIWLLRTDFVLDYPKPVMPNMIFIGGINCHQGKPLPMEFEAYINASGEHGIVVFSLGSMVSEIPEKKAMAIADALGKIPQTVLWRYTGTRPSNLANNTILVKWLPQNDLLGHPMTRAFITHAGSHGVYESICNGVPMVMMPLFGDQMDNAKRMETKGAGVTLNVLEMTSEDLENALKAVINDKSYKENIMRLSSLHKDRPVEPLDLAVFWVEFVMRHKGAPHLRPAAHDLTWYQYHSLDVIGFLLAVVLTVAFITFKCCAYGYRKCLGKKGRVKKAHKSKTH

Cytochrome P450 2C8 = target: T8, Cytochrome P450 2C8 (Homo sapiens, UniProt P10632); assay: Clinically relevant inhibitors of human liver microsomal P450 enzymes, isoform CYP2C8; conditions: microsomes
T8 sequence (P10632 whole entry): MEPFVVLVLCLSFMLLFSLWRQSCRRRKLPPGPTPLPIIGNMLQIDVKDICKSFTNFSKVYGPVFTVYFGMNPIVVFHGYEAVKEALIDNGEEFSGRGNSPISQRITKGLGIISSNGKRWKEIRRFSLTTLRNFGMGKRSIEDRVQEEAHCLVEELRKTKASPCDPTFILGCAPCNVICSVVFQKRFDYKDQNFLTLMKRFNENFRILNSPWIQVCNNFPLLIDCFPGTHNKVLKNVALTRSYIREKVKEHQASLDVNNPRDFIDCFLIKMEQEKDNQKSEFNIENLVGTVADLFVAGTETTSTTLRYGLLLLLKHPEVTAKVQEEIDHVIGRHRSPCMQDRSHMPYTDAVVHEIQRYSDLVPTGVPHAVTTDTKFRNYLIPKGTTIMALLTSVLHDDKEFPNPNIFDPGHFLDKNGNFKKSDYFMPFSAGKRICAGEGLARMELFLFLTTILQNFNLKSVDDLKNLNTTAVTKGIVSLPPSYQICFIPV

[5] = target: T9, UDP-glucuronosyltransferase 1A1 (Homo sapiens, UniProt P22309); assay: Substrate of human UDP-glucuronosyltransferase UGT1A1
T9 sequence (P22309 whole entry): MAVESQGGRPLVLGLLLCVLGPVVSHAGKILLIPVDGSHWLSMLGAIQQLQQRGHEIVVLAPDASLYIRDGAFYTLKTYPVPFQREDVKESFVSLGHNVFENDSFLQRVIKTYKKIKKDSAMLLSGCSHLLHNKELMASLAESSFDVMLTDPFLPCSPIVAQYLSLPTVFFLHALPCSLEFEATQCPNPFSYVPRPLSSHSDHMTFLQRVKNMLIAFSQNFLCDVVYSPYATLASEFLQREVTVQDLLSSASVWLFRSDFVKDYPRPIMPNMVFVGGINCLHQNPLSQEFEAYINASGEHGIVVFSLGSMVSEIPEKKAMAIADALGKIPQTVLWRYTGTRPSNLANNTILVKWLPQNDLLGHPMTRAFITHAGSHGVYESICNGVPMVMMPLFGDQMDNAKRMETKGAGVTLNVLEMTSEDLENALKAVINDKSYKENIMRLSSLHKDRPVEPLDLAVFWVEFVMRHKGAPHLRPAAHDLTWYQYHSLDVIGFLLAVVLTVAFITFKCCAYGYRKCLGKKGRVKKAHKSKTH

Compound: OCc1ccc2ccc3cccc4ccc1c2c34
Activity (Sulfotransferase 2A1): Substrate
Activity (Sulfotransferase 1A3): Substrate
Activity (Sulfotransferase 1C4): Substrate

Activity [1]: Substrate
Activity (Sulfotransferase 1E1): Substrate
Activity [2]: Substrate
Compound: Oc1cccc2ccccc12 [1-NAPHTHOL]

Activity (Sulfotransferase 1A3): Substrate
Compound: CC(C)(C)NCC(O)c1ccc(O)c(CO)c1 (stereo unspecified) [ALBUTEROL]

Compound: NC(Cc1ccc(Oc2ccc(O)c(I)c2)c(I)c1)C(=O)O (stereo unspecified) [DIIODOTHYRONINE]
Activity (Sulfotransferase 1B1): Substrate
Activity (Sulfotransferase 1A1): Substrate

Activity (Sulfotransferase 1A3): Substrate
Compound: CC(CCc1ccc(O)cc1)NCCc1ccc(O)c(O)c1 (stereo unspecified) [DOBUTAMINE]

Activity (Sulfotransferase 1A3): Substrate
Activity (Sulfotransferase 1B1): Substrate
Activity (Sulfotransferase 1A1): Substrate
Compound: NCCc1ccc(O)c(O)c1 [DOPAMINE]

Activity [1]: Substrate
Compound: CC#C[C@]1(O)CC[C@H]2[C@@H]3CCc4cc(O)ccc4[C@H]3CC[C@@]21C [ESTROGEN]

Activity (Sulfotransferase 2A1): Substrate
Activity (Sulfotransferase 1C4): Substrate
Activity (Sulfotransferase 4A1): Substrate
Activity (Sulfotransferase 1E1): Substrate
Compound: C[C@]12CC[C@@H]3c4ccc(O)cc4CC[C@H]3[C@@H]1CCC2=O [ESTRONE]

Activity [3]: Substrate
Activity [4]: Substrate
Activity [1]: Substrate
Compound: NS(=O)(=O)c1cc(C(=O)O)c(NCc2ccco2)cc1Cl [FUROSEMIDE]

Activity (Cytochrome P450 2C8): Inhibitor
Compound: Cc1ccc(C)c(OCCCC(C)(C)C(=O)O)c1 [GEMFIBROZIL]

Activity (Sulfotransferase 4A1): Substrate
Activity (Sulfotransferase 1B1): Substrate
Activity [5]: Substrate
Compound: N[C@@H](Cc1cc(I)c(Oc2cc(I)c(O)c(I)c2)c(I)c1)C(=O)O [LEVOTHYROXINE]

Activity (Sulfotransferase 4A1): Substrate
Activity (Sulfotransferase 1B1): Substrate
Activity (Sulfotransferase 1A1): Substrate
Compound: N[C@@H](Cc1cc(I)c(Oc2ccc(O)c(I)c2)c(I)c1)C(=O)O [LIOTHYRONINE]

Activity (Cytochrome P450 2C8): Inhibitor
Compound: CC(C)(O)c1ccccc1CC[C@@H](SCC1(CC(=O)O)CC1)c1cccc(/C=C/c2ccc3ccc(Cl)cc3n2)c1 [MONTELUKAST]

Compound: Nc1ccc2ccccc2c1 [NAPHTHYLAMINE]
Activity (Sulfotransferase 4A1): Substrate

Activity (Sulfotransferase 1A3): Substrate
Compound: NC[C@H](O)c1ccc(O)c(O)c1 [NOREPINEPHRINE]

Activity (Cytochrome P450 2C8): Inhibitor
Compound: CCc1ccc(CCOc2ccc(CC3SC(=O)NC3=O)cc2)nc1 (stereo unspecified) [PIOGLITAZONE]

Compound: O=c1c(O)c(-c2ccc(O)c(O)c2)oc2cc(O)cc(O)c12 [QUERCETIN]
Activity (Cytochrome P450 2C8): Inhibitor

Activity [4]: Substrate
Activity [1]: Substrate
Activity [5]: Substrate
Compound: O=C(c1ccc(OCCN2CCCCC2)cc1)c1c(-c2ccc(O)cc2)sc2cc(O)ccc12 [RALOXIFENE]

Compound: N[C@@H](Cc1ccc(Oc2cc(I)c(O)c(I)c2)c(I)c1)C(=O)O [REVERSE TRIIODOTHYRONINE]
Activity (Sulfotransferase 1B1): Substrate

Activity (Cytochrome P450 2C8): Inhibitor
Compound: CC(C)c1nc(N(C)S(C)(=O)=O)nc(-c2ccc(F)cc2)c1/C=C/[C@@H](O)C[C@@H](O)CC(=O)O [ROSUVASTATIN]

Activity [4]: Substrate
Activity [1]: Substrate
Activity (Sulfotransferase 1A1): Substrate
Compound: Cc1c(C)c2c(c(C)c1O)CCC(C)(COc1ccc(CC3SC(=O)NC3=O)cc1)O2 (stereo unspecified) [TROGLITAZONE]
